Source: patent US20090298820A1, “3-SUBSTITUTED-1H-PYRROLO[2,3-B]PYRIDINE AND 3-SUBSTITUTED-1H-PYRROLO[3,2-B]PYRIDINE COMPOUNDS, THEIR USE AS MTOR KINASE AND PI3 KINASE INHIBITORS, AND THEIR SYNTHESES” (Wyeth, priority 2008, published 2009)

Columns and labels:
Format in all cases: biochemical
PI3Kα = PI3Kα (Homo sapiens, UniProt P42336); assay: PI3K-alpha fluorescence polarization assay; details: read-out: PI3Kα Median IC50
PI3Kγ = PI3Kγ (Homo sapiens, UniProt P48736); assay: PI3K-gamma fluorescence polarization assay; details: read-out: PI3Kγ Median IC50
mTOR = mTOR (Homo sapiens, UniProt P42345); assay: mTOR enzyme assay (DELFIA format, His6-S6K substrate); details: read-out: mTOR Kinase Median IC50

PI3Kγ, sequence (P48736 whole entry, species assumed): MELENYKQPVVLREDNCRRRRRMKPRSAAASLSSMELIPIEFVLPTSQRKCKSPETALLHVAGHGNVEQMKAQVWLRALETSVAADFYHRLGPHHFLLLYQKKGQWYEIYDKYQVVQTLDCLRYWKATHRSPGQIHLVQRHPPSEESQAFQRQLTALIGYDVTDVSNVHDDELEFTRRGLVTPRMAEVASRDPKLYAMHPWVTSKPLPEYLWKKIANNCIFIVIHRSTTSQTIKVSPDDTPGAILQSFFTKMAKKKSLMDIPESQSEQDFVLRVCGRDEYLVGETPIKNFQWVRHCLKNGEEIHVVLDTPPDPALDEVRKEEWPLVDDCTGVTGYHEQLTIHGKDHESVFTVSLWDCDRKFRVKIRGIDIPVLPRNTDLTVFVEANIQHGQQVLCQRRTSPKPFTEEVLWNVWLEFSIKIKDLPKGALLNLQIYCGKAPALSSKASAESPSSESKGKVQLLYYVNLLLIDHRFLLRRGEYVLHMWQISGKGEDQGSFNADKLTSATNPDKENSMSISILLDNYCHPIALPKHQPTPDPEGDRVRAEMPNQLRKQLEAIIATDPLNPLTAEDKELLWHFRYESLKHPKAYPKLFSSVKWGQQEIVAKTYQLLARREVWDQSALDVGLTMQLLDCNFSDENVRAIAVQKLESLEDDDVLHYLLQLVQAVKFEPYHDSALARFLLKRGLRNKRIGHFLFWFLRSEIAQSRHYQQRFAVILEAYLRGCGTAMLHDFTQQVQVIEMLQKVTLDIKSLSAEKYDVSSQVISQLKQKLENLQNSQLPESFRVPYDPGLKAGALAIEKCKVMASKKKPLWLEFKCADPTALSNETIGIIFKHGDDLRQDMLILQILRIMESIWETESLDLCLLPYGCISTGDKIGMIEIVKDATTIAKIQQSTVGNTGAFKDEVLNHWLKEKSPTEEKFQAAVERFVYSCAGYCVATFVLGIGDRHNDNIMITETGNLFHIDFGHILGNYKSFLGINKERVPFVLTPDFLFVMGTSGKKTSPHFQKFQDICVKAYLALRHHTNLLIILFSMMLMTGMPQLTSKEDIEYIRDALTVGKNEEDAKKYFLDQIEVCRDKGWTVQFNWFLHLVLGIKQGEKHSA
PI3Kα, sequence (P42336 whole entry, species assumed): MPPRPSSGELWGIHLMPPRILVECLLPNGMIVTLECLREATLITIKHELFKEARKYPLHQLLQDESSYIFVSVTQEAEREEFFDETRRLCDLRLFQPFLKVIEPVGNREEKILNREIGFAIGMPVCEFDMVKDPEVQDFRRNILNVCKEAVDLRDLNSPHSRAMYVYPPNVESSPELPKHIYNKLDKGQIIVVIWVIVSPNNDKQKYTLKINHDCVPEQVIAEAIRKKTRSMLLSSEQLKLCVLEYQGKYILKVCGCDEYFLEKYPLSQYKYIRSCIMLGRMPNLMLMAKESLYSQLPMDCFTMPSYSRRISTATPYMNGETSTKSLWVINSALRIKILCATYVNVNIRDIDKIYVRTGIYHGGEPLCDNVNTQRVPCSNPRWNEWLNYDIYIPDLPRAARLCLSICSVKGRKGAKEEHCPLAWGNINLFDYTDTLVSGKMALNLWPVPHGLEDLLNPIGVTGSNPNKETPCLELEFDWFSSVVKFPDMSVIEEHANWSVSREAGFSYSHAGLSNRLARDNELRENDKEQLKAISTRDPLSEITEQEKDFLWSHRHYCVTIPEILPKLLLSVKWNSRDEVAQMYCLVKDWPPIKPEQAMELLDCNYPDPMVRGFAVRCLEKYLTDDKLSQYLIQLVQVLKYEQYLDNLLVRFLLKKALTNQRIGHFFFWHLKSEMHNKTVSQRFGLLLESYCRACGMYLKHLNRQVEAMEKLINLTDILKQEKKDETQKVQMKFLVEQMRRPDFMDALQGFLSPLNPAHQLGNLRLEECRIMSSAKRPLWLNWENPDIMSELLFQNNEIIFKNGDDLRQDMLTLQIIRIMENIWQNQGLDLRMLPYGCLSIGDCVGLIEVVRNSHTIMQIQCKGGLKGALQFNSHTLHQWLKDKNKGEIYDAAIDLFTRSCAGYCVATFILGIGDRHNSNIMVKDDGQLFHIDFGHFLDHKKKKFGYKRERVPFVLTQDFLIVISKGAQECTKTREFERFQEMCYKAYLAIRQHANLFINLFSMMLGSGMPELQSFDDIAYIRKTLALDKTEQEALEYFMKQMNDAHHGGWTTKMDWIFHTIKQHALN
PI3Kα, sequence (P27986 whole entry partner, species assumed): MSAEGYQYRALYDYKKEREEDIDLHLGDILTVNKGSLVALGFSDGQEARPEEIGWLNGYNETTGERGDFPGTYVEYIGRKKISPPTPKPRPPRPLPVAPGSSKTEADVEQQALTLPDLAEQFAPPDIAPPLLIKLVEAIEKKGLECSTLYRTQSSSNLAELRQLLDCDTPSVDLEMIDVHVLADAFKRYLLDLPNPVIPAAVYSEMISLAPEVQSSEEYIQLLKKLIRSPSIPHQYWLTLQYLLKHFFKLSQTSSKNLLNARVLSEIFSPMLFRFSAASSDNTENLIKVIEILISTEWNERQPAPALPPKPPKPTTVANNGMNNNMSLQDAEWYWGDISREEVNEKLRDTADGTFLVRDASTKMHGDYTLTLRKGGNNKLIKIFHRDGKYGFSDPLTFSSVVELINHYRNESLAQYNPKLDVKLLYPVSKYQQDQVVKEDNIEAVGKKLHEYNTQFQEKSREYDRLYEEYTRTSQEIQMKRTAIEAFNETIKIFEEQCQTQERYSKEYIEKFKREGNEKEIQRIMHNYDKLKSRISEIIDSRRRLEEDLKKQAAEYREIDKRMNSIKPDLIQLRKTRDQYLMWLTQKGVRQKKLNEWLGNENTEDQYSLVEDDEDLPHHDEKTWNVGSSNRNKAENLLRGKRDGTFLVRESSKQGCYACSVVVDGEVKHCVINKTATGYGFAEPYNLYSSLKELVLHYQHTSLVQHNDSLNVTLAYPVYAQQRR

Cn1cc(/C=C2\Oc3ccc(NC(=O)Nc4cccnc4)cc3C2=O)c2c(N3CCC(C(=O)N4CCCC4)CC3)ccnc21 [Compound 253, 1-[(2Z)-2-({1-methyl-4-[4-(pyrrolidin-1-ylcarbonyl)piperidin-1-yl]-1H-pyrrolo[2,3-b]pyridin-3-yl}methylene)-3-oxo-2,3-dihydro-1-benzofuran-5-yl]-3-pyridin-3-ylurea]
IC50 (PI3Kα): 909 nM
IC50 (PI3Kγ): 661 nM
IC50 (mTOR): 8.2 nM

Cn1cc(/C=C2\Oc3ccc(NC(=O)Nc4cccnc4)cc3C2=O)c2c(N3CCC(C(=O)NCCO)CC3)ccnc21 [Compound 254, N-(2-hydroxyethyl)-1-{1-methyl-3-[(Z)-{3-oxo-5-[(pyridin-3-ylcarbamoyl)amino]-1-benzofuran-2(3H)-ylidene}methyl]-1H-pyrrolo[2,3-b]pyridin-4-yl}piperidine-4-carboxamide]
IC50 (PI3Kα): 3330 nM
IC50 (PI3Kγ): 1140 nM
IC50 (mTOR): 4.2 nM

Cn1cc(/C=C2\Oc3ccc(NC(=O)Nc4cccnc4)cc3C2=O)c2c(N3CCC(C(=O)N4CCCCC4)CC3)ccnc21 [Compound 258, 1-[(2Z)-2-({1-methyl-4-[4-(piperidin-1-ylcarbonyl)piperidin-1-yl]-1H-pyrrolo[2,3-b]pyridin-3-yl}methylene)-3-oxo-2,3-dihydro-1-benzofuran-5-yl]-3-pyridin-3-ylurea]
IC50 (PI3Kα): 604 nM
IC50 (PI3Kγ): 206 nM
IC50 (mTOR): 47.5 nM

COC1CCN(C(=O)c2ccc(-c3ccnc4c3c(/C=C3\Oc5ccc(NC(=O)Nc6cccnc6)cc5C3=O)cn4C)cc2)C1 (stereo not drawn) [Compound 259, 1-{(2Z)-2-[(4-{4-[(3-methoxypyrrolidin-1-yl)carbonyl]phenyl}-1-methyl-1H-pyrrolo[2,3-b]pyridin-3-yl)methylene]-3-oxo-2,3-dihydro-1-benzofuran-5-yl}-3-pyridin-3-ylurea]
IC50 (PI3Kα): 2060 nM
IC50 (PI3Kγ): 529 nM
IC50 (mTOR): 17.5 nM

COCCNC(=O)C1CCN(c2ccnc3c2c(/C=C2\Oc4ccc(NC(=O)Nc5cccnc5)cc4C2=O)cn3C)CC1 [Compound 260, N-(2-methoxyethyl)-1-{1-methyl-3-[(Z)-{3-oxo-5-[(pyridin-3-ylcarbamoyl)amino]-1-benzofuran-2(3H)-ylidene}methyl]-1H-pyrrolo[2,3-b]pyridin-4-yl}piperidine-4-carboxamide]
IC50 (PI3Kα): 744 nM
IC50 (PI3Kγ): 1920 nM
IC50 (mTOR): 8.4 nM

CN(C)CCNC(=O)C1CCN(c2ccnc3c2c(/C=C2\Oc4ccc(NC(=O)Nc5cccnc5)cc4C2=O)cn3C)CC1 [Compound 261, N-[2-(dimethylamino)ethyl]-1-{1-methyl-3-[(Z)-{3-oxo-5-[(pyridin-3-ylcarbamoyl)amino]-1-benzofuran-2(3H)-ylidene}methyl]-1H-pyrrolo[2,3-b]pyridin-4-yl}piperidine-4-carboxamide]
IC50 (PI3Kα): > 10000 nM
IC50 (PI3Kγ): 886 nM
IC50 (mTOR): 22.5 nM

CC1CN(C(=O)C2CCN(c3ccnc4c3c(/C=C3\Oc5ccc(NC(=O)Nc6cccnc6)cc5C3=O)cn4C)CC2)CC(C)O1 (stereo not drawn) [Compound 265, 1-{(2Z)-2-[(4-{4-[(2,6-dimethylmorpholin-4-yl)carbonyl]piperidin-1-yl}-1-methyl-1H-pyrrolo[2,3-b]pyridin-3-yl)methylene]-3-oxo-2,3-dihydro-1-benzofuran-5-yl}-3-pyridin-3-ylurea]
IC50 (PI3Kα): 3750 nM
IC50 (PI3Kγ): 1190 nM
IC50 (mTOR): 40.5 nM

CN(C)CCN(C)C(=O)C1CCN(c2ccnc3c2c(/C=C2\Oc4ccc(NC(=O)Nc5cccnc5)cc4C2=O)cn3C)CC1 [Compound 266, N-[2-(dimethylamino)ethyl]-N-methyl-1-{1-methyl-3-[(Z)-{3-oxo-5-[(pyridin-3-ylcarbamoyl)amino]-1-benzofuran-2(3H)-ylidene}methyl]-1H-pyrrolo[2,3-b]pyridin-4-yl}piperidine-4-carboxamide]
IC50 (PI3Kα): > 10000 nM
IC50 (PI3Kγ): 1200 nM
IC50 (mTOR): 42.5 nM

CN(C)C(=O)C1CCN(c2ccnc3c2c(/C=C2\Oc4ccc(NC(=O)Nc5ccc(OC6CCOCC6)nc5)cc4C2=O)cn3C)CC1 [Compound 267, N,N-dimethyl-1-(1-methyl-3-{(Z)-[3-oxo-5-({[6-(tetrahydro-2H-pyran-4-yloxy)pyridin-3-yl]carbamoyl}amino)-1-benzofuran-2(3H)-ylidene]methyl}-1H-pyrrolo[2,3-b]pyridin-4-yl)piperidine-4-carboxamide]
IC50 (PI3Kα): 503 nM
IC50 (PI3Kγ): 638 nM
IC50 (mTOR): 39 nM

CN(C)C(=O)C1CCN(c2ccnc3c2c(/C=C2\Oc4ccc(NC(=O)Nc5ccc(N6CCOCC6)cc5)cc4C2=O)cn3C)CC1 [Compound 268, N,N-dimethyl-1-(1-methyl-3-{(Z)-[5-{[(4-morpholin-4-ylphenyl)carbamoyl]amino}-3-oxo-1-benzofuran-2(3H)-ylidene]methyl}-1H-pyrrolo[2,3-b]pyridin-4-yl)piperidine-4-carboxamide]
IC50 (PI3Kα): 2590 nM
IC50 (PI3Kγ): 6090 nM
IC50 (mTOR): 215 nM

Cn1cc(/C=C2\Oc3ccc(NC(=O)Nc4ccc(N5CCOCC5)cc4)cc3C2=O)c2c(N3CC4CCC(C3)O4)ccnc21 [Compound 273, 1-[(2Z)-2-{[1-methyl-4-(8-oxa-3-azabicyclo[3.2.1]oct-3-yl)-1H-pyrrolo[2,3-b]pyridin-3-yl]methylidene}-3-oxo-2,3-dihydro-1-benzofuran-5-yl]-3-(4-morpholin-4-ylphenyl)urea]
IC50 (PI3Kα): 5700 nM
IC50 (PI3Kγ): > 10000 nM
IC50 (mTOR): 3350 nM

CN(C)CCOc1ccc(NC(=O)Nc2ccc3c(c2)C(=O)/C(=C/c2cn(C)c4nccc(N5CCC(C(=O)N(C)C)CC5)c24)O3)cc1 [Compound 274, 1-{3-[(Z)-{5-[({4-[2-(dimethylamino)ethoxy]phenyl}carbamoyl)amino]-3-oxo-1-benzofuran-2(3H)-ylidene}methyl]-1-methyl-1H-pyrrolo[2,3-b]pyridin-4-yl}-N,N-dimethylpiperidine-4-carboxamide]
IC50 (PI3Kα): 778 nM
IC50 (PI3Kγ): 934 nM
IC50 (mTOR): 21 nM

COC1CCN(C(=O)C2CCN(c3ccnc4c3c(/C=C3\Oc5ccc(NC(=O)Nc6cccnc6)cc5C3=O)cn4C)CC2)C1 (stereo not drawn) [Compound 275, 1-{(2Z)-2-[(4-{4-[(3-methoxypyrrolidin-1-yl)carbonyl]piperidin-1-yl}-1-methyl-1H-pyrrolo[2,3-b]pyridin-3-yl)methylidene]-3-oxo-2,3-dihydro-1-benzofuran-5-yl}-3-pyridin-3-ylurea]
IC50 (PI3Kα): 1610 nM
IC50 (PI3Kγ): 1330 nM
IC50 (mTOR): 13 nM

Cn1cc(/C=C2\Oc3ccc(NC(=O)Nc4ccc(CN5CCCCC5)cc4)cc3C2=O)c2c(N3CC4CCC(C3)O4)ccnc21 [Compound 278, 1-[(2Z)-2-{[1-methyl-4-(8-oxa-3-azabicyclo[3.2.1]oct-3-yl)-1H-pyrrolo[2,3-b]pyridin-3-yl]methylidene}-3-oxo-2,3-dihydro-1-benzofuran-5-yl]-3-[4-(piperidin-1-ylmethyl)phenyl]urea]
IC50 (PI3Kα): 743 nM
IC50 (PI3Kγ): 450 nM
IC50 (mTOR): 23 nM

Cn1cc(/C=C2\Oc3ccc(NC(=O)NC4CNC4)cc3C2=O)c2c(N3CC4CCC(C3)O4)ccnc21 [Compound 285, 1-azetidin-3-yl-3-[(2Z)-2-{[1-methyl-4-(8-oxa-3-azabicyclo[3.2.1]oct-3-yl)-1H-pyrrolo[2,3-b]pyridin-3-yl]methylidene}-3-oxo-2,3-dihydro-1-benzofuran-5-yl]urea]
IC50 (PI3Kα): 49 nM
IC50 (PI3Kγ): 532 nM
IC50 (mTOR): 11.4 nM

Cn1cc(/C=C2\Oc3ccc(NC(=O)NC4CCN(C(=O)C(F)(F)F)CC4)cc3C2=O)c2c(N3CC4CCC(C3)O4)ccnc21 [Compound 286, 1-[(2Z)-2-{[1-methyl-4-(8-oxa-3-azabicyclo[3.2.1]oct-3-yl)-1H-pyrrolo[2,3-b]pyridin-3-yl]methylidene}-3-oxo-2,3-dihydro-1-benzofuran-5-yl]-3-[1-(trifluoroacetyl)piperidin-4-yl]urea]
IC50 (PI3Kα): 354 nM
IC50 (PI3Kγ): 1720 nM
IC50 (mTOR): 108 nM

CN(C)C(=O)C1CCN(c2ccnc3c2c(/C=C2\Oc4ccc(NC(=O)NC5CNC5)cc4C2=O)cn3C)CC1 [Compound 287, 1-{3-[(Z)-{5-[(azetidin-3-ylcarbamoyl)amino]-3-oxo-1-benzofuran-2(3H)-ylidene}methyl]-1-methyl-1H-pyrrolo[2,3-b]pyridin-4-yl}-N,N-dimethylpiperidine-4-carboxamide]
IC50 (PI3Kα): 68 nM
IC50 (PI3Kγ): 314 nM
IC50 (mTOR): 8.4 nM

CC(C)NC(=O)Nc1ccc2c(c1)C(=O)/C(=C/c1cn(C)c3nccc(N4CCC(C(=O)N(C)C)CC4)c13)O2 [Compound 288, N,N-dimethyl-1-(1-methyl-3-{(Z)-[5-{[(1-methylethyl)carbamoyl]amino}-3-oxo-1-benzofuran-2(3H)-ylidene]methyl}-1H-pyrrolo[2,3-b]pyridin-4-yl)piperidine-4-carboxamide]
IC50 (PI3Kα): 1490 nM
IC50 (PI3Kγ): 3780 nM
IC50 (mTOR): 73 nM

Cn1cc(/C=C2\Oc3ccc(NC(=O)Nc4nc5ccccc5n4C)cc3C2=O)c2c(N3CC4CCC(C3)O4)ccnc21 [Compound 289, 1-(1-methyl-1H-benzimidazol-2-yl)-3-[(2Z)-2-{[1-methyl-4-(8-oxa-3-azabicyclo[3.2.1]oct-3-yl)-1H-pyrrolo[2,3-b]pyridin-3-yl]methylidene}-3-oxo-2,3-dihydro-1-benzofuran-5-yl]urea]
IC50 (PI3Kα): 5710 nM
IC50 (PI3Kγ): > 10000 nM
IC50 (mTOR): 205 nM

CN(C)C(=O)C1CCN(c2ccnc3c2c(/C=C2\Oc4ccc(NC(=O)Nc5nc6ccccc6n5C)cc4C2=O)cn3C)CC1 [Compound 290, N,N-dimethyl-1-(1-methyl-3-{(Z)-[5-{[(1-methyl-1H-benzimidazol-2-yl)carbamoyl]amino}-3-oxo-1-benzofuran-2(3H)-ylidene]methyl}-1H-pyrrolo[2,3-b]pyridin-4-yl)piperidine-4-carboxamide]
IC50 (PI3Kα): 1250 nM
IC50 (PI3Kγ): > 10000 nM
IC50 (mTOR): 150 nM

CN(C)C(=O)C1CCN(c2ccnc3c2c(/C=C2\Oc4ccc(NC(=O)NC5CC5)cc4C2=O)cn3C)CC1 [Compound 291, 1-{3-[(Z)-{5-[(cyclopropylcarbamoyl)amino]-3-oxo-1-benzofuran-2(3H)-ylidene}methyl]-1-methyl-1H-pyrrolo[2,3-b]pyridin-4-yl}-N,N-dimethylpiperidine-4-carboxamide]
IC50 (PI3Kα): 2550 nM
IC50 (PI3Kγ): 4680 nM
IC50 (mTOR): 59 nM
